Experimental data taken from publication PMC12566191, “Isolation and In Vitro Activity of Sesquiterpene Lactones from Eremanthus crotonoides as SARS-CoV-2 Protease Inhibitors and Cytotoxic Agents” (Molecules, 2025).
Where “and” joins values, the source holds several entries; their conditions need not be identical. Equal entries are not always repeated. Entries after “also recorded” stand apart in the source; their conditions may differ. Where two headings read alike, the source gives them in different places.

How the values were obtained:
[1] = Cell viability, MTT assay, PC-3; type: cell-based, human; conditions: human
Procedure: (§1) The cytotoxicity of crude extract and isolated compounds were evaluated against the human tumor cell lines PC-3 (prostatic carcinoma cell) and HCT-116 (colorectal carcinoma cell). Cell maintenance was performed as described in the literature. The extract and isolated compounds were tested at the concentrations of 0.05 and 50 μg/mL and 0.01 and 10 μM, respectively. Saponin digitonin (100 µM), a very potent permeabilizer of cell membranes, was used as positive control to induce 0% cell viability after 48 h of treatment.
(§2) Cell viability was determined by MTT and crystal violet (CV) assays after 48 h of incubation. Absorbance was measured using an automated microplate reader at 540 nm with a reference wavelength of 670 nm. Results are expressed as percentages relative to untreated control cultures.

[2] = Cell viability, crystal violet (CV) assay, PC-3; type: cell-based; conditions: human
Procedure: as §1, §2

[3] = Cell viability, MTT assay, HCT-116; type: cell-based, human; conditions: human
Procedure: as §1, §2

[4] = Cell viability, crystal violet (CV) assay, HCT-116; type: cell-based; conditions: human
Procedure: as §1, §2

[5] = target: Recombinant SARS-CoV-2 PLpro (Severe acute respiratory syndrome coronavirus 2, UniProt P0DTD1); test: FRET enzymatic inhibition assay, PLpro; type: biochemical
[6] = target: Recombinant SARS-CoV-2 3CLpro (Severe acute respiratory syndrome coronavirus 2, UniProt P0DTD1); test: FRET enzymatic inhibition assay, 3CLpro; type: biochemical; conditions: for inhibition at 1000 µM: read-out: Maximum inhibition (%) 3CLpro
[7] = test system: clinical isolate of S. aureus; design: method as in doi:10.1007/s43450-021-00176-z; conditions: cited from earlier work
[8] = test system: S. aureus; design: method as in doi:10.1007/s43450-021-00176-z; conditions: cited from earlier work
[9] = test system: glioblastoma multiforme; design: method as in doi:10.1590/S0102-695X2012005000131; conditions: cited from earlier work
[10] = test system: PC-3 (prostatic carcinoma cell); test: Cell viability, MTT assay, PC-3; type: cell-based, human; conditions: 10 µM (goyazensolide: ≤ 10 µM), 48 h, MTT and CV assays
Procedure: as §1, §2

[11] = test system: HCT-116 (colorectal carcinoma cell); test: Cell viability, MTT assay, HCT-116; type: cell-based, human; conditions: 10 µM (goyazensolide: ≤ 10 µM), 48 h, MTT and CV assays
Procedure: as §1, §2

[12] = maximum inhibition conc. 1,000 µM (highest concentration tested)
[13] = 125 µg/mL (101.7 µM), positive control
[14] = HCT-116 colorectal carcinoma cells

C=C1C(=O)OC2C=C(CO)C3=CC(=O)C(C)(CC(OC(=O)C(C)=CC)C12)O3 (stereo not drawn) [Centratherin, centratherin] showed a viability at 48 h, 0.01 µM [1] of 100 ± 13.5%, a viability at 48 h, 10 µM [1] of 0% and a viability at 48 h, 0.01 µM [2] of 100 ± 3.6%. The viability at 48 h, 10 µM [2] was 0%, the viability at 48 h, 0.01 µM [3] was 100 ± 9.6% and the viability at 48 h, 10 µM [3] was 0%. The viability at 48 h, 0.01 µM [4] was 114 ± 5.6%, the viability at 48 h, 10 µM [4] was 3.5 ± 9.1% and the IC50 ([5]; Apparent IC50 PLpro) was 12 µM and 11.9 µM. The “Maximum inhibition (%) PLpro” value [5, 12] was 97%, the inhibition at 1000 µM ([5]; read-out: Maximum inhibition (%) PLpro, maximum inhibition conc. 1,000 µM (highest concentration tested)) was 96.77 ± 0.3% and the IC50 ([6]; Apparent IC50 3CLpro) was 165 µM. For the same compound, the inhibition at 1000 µM [6] was 89.5 ± 0.97%, the “Concentration inhibiting clinical isolate of S. aureus” value [7] was 32 µg/mL and the “Concentration with antibiofilm activity” value [8] was 128 µg/mL. For the same compound, the “Cytotoxic activity against glioblastoma multiforme” value [9] was “exhibited cytotoxic activity” and the “IC50 values against glioblastoma multiforme, compared with doxorubicin” value [9] was “comparable to the commercial anticancer drug doxorubicin”.

In the case of C[C@@H]1CC[C@@]2(OC1)O[C@H]1[C@@H](O)[C@H]3[C@@H]4CC[C@H]5C[C@@H](O[C@@H]6O[C@H](CO)[C@H](O[C@@H]7O[C@H](CO)[C@@H](O)[C@H](O[C@@H]8OC[C@@H](O)[C@H](O)[C@H]8O)[C@H]7O[C@@H]7O[C@H](CO)[C@H](O)[C@H](O[C@@H]8O[C@H](CO)[C@@H](O)[C@H](O)[C@H]8O)[C@H]7O)[C@H](O)[C@H]6O)[C@H](O)C[C@]5(C)[C@H]4CC[C@]3(C)[C@H]1[C@@H]2C [DGTN, digitonin, reference compound], the viability at 48 h, 101.7 µM [1, 13] is reported as 0%, the viability at 48 h, 101.7 µM [2, 13] is reported as 0% and the viability at 48 h, 101.7 µM [3, 13] is reported as 0%. For the same compound, the viability at 48 h, 101.7 µM [4, 13] was 0%.

With C=C(C)C(=O)OC1CC2(C)OC(=CC2=O)C(CO)=CC2OC(=O)C(=C)C21 (stereo not drawn) [Goyazensolide, goyazensolide] the viability at 48 h, 0.01 µM ([1]; PC-3 prostatic carcinoma cells) was 86.6 ± 4.7%, the viability at 48 h, 10 µM ([1]; PC-3 prostatic carcinoma cells) was 100 ± 18% and the “Reduction of cell viability, PC-3” value [10] was “no noteworthy effects; also recorded: unable to decrease cell viability; also recorded: no such effect”. It also gave a viability at 48 h, 0.01 µM ([2]; PC-3 prostatic carcinoma cells) of 89.5 ± 2.8%, a viability at 48 h, 10 µM ([2]; PC-3 prostatic carcinoma cells) of 91.4 ± 1.7% and a viability at 48 h, 0.01 µM [3, 14] of 99.6 ± 5.9%. For the same compound, the viability at 48 h, 10 µM [3, 14] was 100 ± 5.8%, the “Reduction of cell viability, HCT-116” value [11] was “no noteworthy effects; also recorded: unable to decrease cell viability; also recorded: no such effect” and the viability at 48 h, 0.01 µM [4, 14] was 113 ± 4%. The viability at 48 h, 10 µM [4, 14] was 92.1 ± 9%, the inhibition at 1000 µM ([5]; maximum inhibition conc. 1,000 µM (highest concentration tested), read-out: Maximum inhibition (%) PLpro) was 80.7 ± 5.9% and the IC50 ([5]; read-out: Apparent IC50 PLpro) was 317 µM. For the same compound, the “Maximum inhibition (%) 3CLpro” value [6, 12] was 96%, the inhibition at 1000 µM [6, 12] was 96.14 ± 0.01% and the IC50 ([6]; read-out: Apparent IC50 3CLpro) was 71.1 µM and 71 µM.
